From patent publication US8802673B2, “Heterocyclic amine derivatives” (Hoffmann-La Roche Inc, priority 2011, dated 2014)

Key:
[1] = target: rat TAAR1 (Rattus norvegicus (Rat), UniProt Q923Y9); assay: Radioligand binding assay on rat TAAR1; settings: rat TAAR1 (second value of the cell), HEK-293 membranes; read-out: Ki (μM) mouse/rat
Outline: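 Membranes from HEK293 cells stably expressing rat TAAR1 were used, with radioligand Kd determined by saturation for each batch. Compounds (10 pM to 10 μM, in duplicate) were incubated for 1 h at 4 °C. Bound radioactivity was collected by filtration onto PEI-soaked GF/C filters and counted by scintillation.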

[2] = target: mouse TAAR1 (Mus musculus (Mouse), UniProt Q923Y8); assay: Radioligand binding assay on mouse TAAR1; settings: mouse TAAR1 (first value of the cell), HEK-293 membranes; read-out: Ki (μM) mouse/rat
mouse TAAR1, sequence (Q923Y8 whole entry): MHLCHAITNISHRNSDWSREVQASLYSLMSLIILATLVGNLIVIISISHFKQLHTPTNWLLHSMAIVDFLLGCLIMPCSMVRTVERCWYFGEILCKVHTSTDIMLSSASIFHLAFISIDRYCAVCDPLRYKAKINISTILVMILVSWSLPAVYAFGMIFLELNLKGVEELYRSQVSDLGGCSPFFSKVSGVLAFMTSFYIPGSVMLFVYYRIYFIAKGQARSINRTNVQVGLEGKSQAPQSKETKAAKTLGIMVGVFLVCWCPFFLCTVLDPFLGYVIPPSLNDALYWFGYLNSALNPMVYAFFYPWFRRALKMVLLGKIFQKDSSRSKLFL
Outline: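 Membranes from HEK293 cells stably expressing mouse TAAR1, Kd of radioligand determined per batch by saturation. Compounds tested 10 pM to 10 μM in duplicate, incubated 1 h at 4 °C, then filtration over PEI-soaked GF/C filters and scintillation counting.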

rat TAAR1, sequence (Q923Y9 whole entry): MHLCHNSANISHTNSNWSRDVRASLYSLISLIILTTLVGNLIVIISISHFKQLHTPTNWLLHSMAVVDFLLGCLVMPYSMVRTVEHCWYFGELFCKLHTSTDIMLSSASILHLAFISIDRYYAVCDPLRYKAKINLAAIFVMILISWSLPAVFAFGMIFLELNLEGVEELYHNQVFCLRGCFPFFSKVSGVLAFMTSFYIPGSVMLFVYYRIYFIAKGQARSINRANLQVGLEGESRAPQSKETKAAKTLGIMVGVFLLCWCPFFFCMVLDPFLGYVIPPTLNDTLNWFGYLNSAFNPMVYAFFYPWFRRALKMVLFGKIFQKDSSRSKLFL

Structure (SMILES)	Ki [1]	Ki [2]
Cc1ccc(Nc2ccc([C@H]3CNCCO3)cc2)nn1 [Example 160, (6-Methyl-pyridazin-3-yl)-((S)-4-morpholin-2-yl-phenyl)-amine]	2.75 µM	0.0061 µM
c1ccc(Cn2ccc(Nc3ccc([C@H]4CNCCO4)cc3)n2)cc1 [Example 161, (1-Benzyl-1H-pyrazol-3-yl)-((S)-4-morpholin-2-yl-phenyl)-amine]	0.223 µM	0.0016 µM
c1ccc(-n2ccc(Nc3ccc([C@H]4CNCCO4)cc3)n2)cc1 [Example 163, ((S)-4-Morpholin-2-yl-phenyl)-(1-phenyl-1H-pyrazol-3-yl)-amine]	0.0332 µM	0.0026 µM
c1ccc(-n2ccc(Nc3ccc([C@@H]4CNCCO4)cc3)n2)cc1 [Example 164, ((R)-4-Morpholin-2-yl-phenyl)-(1-phenyl-1H-pyrazol-3-yl)-amine]	0.025 µM	0.0006 µM
Cc1cc([C@@H]2CNCCO2)ccc1Nc1ncc(C(F)(F)F)cn1 [Example 166, ((R)-2-Methyl-4-morpholin-2-yl-phenyl)-(5-trifluoromethyl-pyrimidin-2-yl)-amine]	0.159 µM	0.0301 µM
FC(F)(F)COc1ccnc(Nc2ccc([C@@H]3CNCCO3)cc2)n1 [Example 172, ((R)-4-Morpholin-2-yl-phenyl)-[4-(2,2,2-trifluoro-ethoxy)-pyrimidin-2-yl]-amine]	0.0162 µM	0.0035 µM
FC(F)(F)c1ccnc(Nc2ccc([C@@H]3CNCCO3)cc2)n1 [Example 173, (R)—N-(4-(Morpholin-2-yl)phenyl)-4-(trifluoromethyl)pyrimidin-2-amine]	0.0625 µM	0.0044 µM
FC(F)Oc1cnc(Oc2cnc(Nc3ccc([C@@H]4CNCCO4)cc3Cl)nc2)nc1 [Example 175, (R)—N-(2-Chloro-4-(morpholin-2-yl)phenyl)-5-(5-(difluoromethoxy)pyrimidin-2-yloxy)pyrimidin-2-amine]	0.0066 µM	0.006 µM
c1cnc(Nc2ccc([C@@H]3CNCCO3)cc2)nc1 [Example 176, (R)—N-(4-(Morpholin-2-yl)phenyl)pyrimidin-2-amine]	> 10 µM	0.152 µM
c1ccc2nc(Nc3ccc([C@@H]4CNCCO4)cc3)ncc2c1 [Example 177, ((R)-4-Morpholin-2-yl-phenyl)-quinazolin-2-yl-amine]	0.0299 µM	0.0028 µM
FC(F)Oc1cnc(Nc2ccc([C@@H]3CNCCO3)cc2)nc1 [Example 179, (R)-5-(Difluoromethoxy)-N-(4-(morpholin-2-yl)phenyl)pyrimidin-2-amine]	0.0517 µM	0.0047 µM
COc1cc(OC)nc(Nc2ccc([C@@H]3CNCCO3)cc2)n1 [Example 183, (4,6-Dimethoxy-pyrimidin-2-yl)-((R)-4-morpholin-2-yl-phenyl)-amine]	0.174 µM	0.0094 µM
FC(F)(F)c1cnc(Nc2ccc([C@@H]3CNCCO3)cc2)c(Cl)c1 [Example 185, (R)-3-Chloro-N-(4-(morpholin-2-yl)phenyl)-5-(trifluoromethyl)pyridin-2-amine]	0.0888 µM	0.0549 µM
FC(F)(F)COc1ccnc(Nc2ccc([C@H]3CNCCO3)cc2)n1 [Example 187, ((S)-4-Morpholin-2-yl-phenyl)-[4-(2,2,2-trifluoro-ethoxy)-pyrimidin-2-yl]-amine]	0.01 µM	0.0021 µM
FS(F)(F)(F)(F)c1ccc(Nc2ccc([C@@H]3CNCCO3)cc2)cc1 [Example 191, (4-Pentalluorosulfanyl-phenyl)-((R)-4-morpholin-2-yl-phenyl)-amine]	0.0032 µM	0.001 µM
Fc1cc(Nc2ncc(C3CC3)cn2)ccc1[C@@H]1CNCCO1 [Example 192, (R)-5-Cyclopropyl-N-(3-fluoro-4-(morpholin-2-yl)phenyl)pyrimidin-2-amine]	0.0026 µM	0.0025 µM
Clc1cc(Nc2ncc(C3CC3)cn2)ccc1[C@H]1CNCCO1 [Example 193, ((S)-3-Chloro-4-morpholin-2-yl-phenyl)-(5-cyclopropyl-pyrimidin-2-yl)-amine]	0.0196 µM	0.0038 µM
Clc1cc(Nc2ncc(C3CC3)cn2)ccc1[C@@H]1CNCCO1 [Example 194, ((R)-3-Chloro-4-morpholin-2-yl-phenyl)-(5-cyclopropyl-pyrimidin-2-yl)-amine]	0.0011 µM	0.0021 µM
Fc1cc(Nc2ncc(C3CC3)cn2)ccc1[C@H]1CNCCO1 [Example 195, (S)-5-Cyclopropyl-N-(3-fluoro-4-(morpholin-2-yl)phenyl)pyrimidin-2-amine]	0.0252 µM	0.0017 µM
Fc1cc(Nc2ncc(C(F)(F)F)cn2)ccc1[C@@H]1CNCCO1 [Example 196, (R)—N-(3-Fluoro-4-(morpholin-2-yl)phenyl)-5-(trifluoromethyl)pyrimidin-2-amine]	0.004 µM	0.0049 µM
FC(F)(F)c1cc(Nc2ccc([C@@H]3CNCCO3)cc2)ncn1 [Example 198, (R)—N-(4-(Morpholin-2-yl)phenyl)-6-(trifluoromethyl)pyrimidin-4-amine]	0.163 µM	0.0419 µM
Clc1cc(Nc2ccc([C@@H]3CNCCO3)cc2)ncn1 [Example 199, (R)-6-Chloro-N-(4-(morpholin-2-yl)phenyl)pyrimidin-4-amine]	0.056 µM	0.0231 µM
FC(F)(F)c1nccc(Nc2ccc([C@@H]3CNCCO3)cc2)n1 [Example 200, (R)—N-(4-(morpholin-2-yl)phenyl)-2-(trifluoromethyl)pyrimidin-4-amine]	0.0588 µM	0.0089 µM
FC(F)(F)c1cnc(Nc2ccc([C@@H]3CNCCO3)cc2)cn1 [Example 201, (R)—N-(4-(Morpholin-2-yl)phenyl)-5-(trffluoromethyl)pyrazin-2-amine]	0.0626 µM	0.008 µM

The remaining compounds from weak to strong by Ki [1], led by results:

Ki [1]	Ki [2]	Structure (SMILES)
1.35 µM	0.112 µM	Cc1cc([C@H]2CNCCO2)ccc1Nc1ncc(C(F)(F)F)cn1 [Example 167, ((S)-2-Methyl-4-morpholin-2-yl-phenyl)-(5-trifluoromethyl-pyrimidin-2-yl)-amine]
1.1 µM	0.138 µM	Clc1ncc(Cl)c(Nc2ccc([C@H]3CNCCO3)cc2)n1 [Example 186, (S)-2,5-Dichloro-N-(4-(morpholin-2-yl)phenyl)pyrimidin-4-amine]
0.447 µM	0.0144 µM	Cc1cc(C)nc(Nc2ccc([C@@H]3CNCCO3)cc2)n1 [Example 182, (4,6-Dimethyl-pyrimidin-2-yl)-((R)-4-morpholin-2-yl-phenyl)-amine]
0.398 µM	0.0084 µM	N#Cc1ccnc(Nc2ccc([C@@H]3CNCCO3)cc2)n1 [Example 181, 2-((R)-4-Morpholin-2-yl-phenylamino)-pyrimidine-4-carbonitrile]
0.34 µM	0.011 µM	c1cc([C@H]2CNCCO2)ccc1Nc1ccc(C2COC2)cn1 [Example 165, ((S)-4-Morpholin-2-yl-phenyl)-(5-oxetan-3-yl-pyridin-2-yl)-amine]
0.127 µM	0.002 µM	c1ccc(Cn2ccc(Nc3ccc([C@@H]4CNCCO4)cc3)n2)cc1 [Example 162, (1-Benzyl-1H-pyrazol-3-yl)-((R)-4-morpholin-2-yl-phenyl)-amine]
0.0628 µM	0.0088 µM	FC(F)Oc1cnc(Oc2cnc(Nc3ccc([C@@H]4CNCCO4)cc3)nc2)nc1 [Example 174, (R)-5-(5-(Difluoromethoxy)pyrimidin-2-yloxy)-N-(4-(morpholin-2-yl)phenyl)pyrimidin-2-amine]
0.0605 µM	0.109 µM	c1cc(C2CC2)nc(Nc2ccc([C@@H]3CNCCO3)cc2)n1 [Example 189, (4-Cyclopropyl-pyrimidin-2-yl)-((R)-4-morpholin-2-yl-phenyl)-amine]
0.0422 µM	0.0031 µM	Fc1cnc(Nc2ccc([C@@H]3CNCCO3)cc2)nc1C1CC1 [Example 190, (4-Cyclopropyl-5-fluoro-pyrimidin-2-yl)-((R)-4-morpholin-2-yl-phenyl)-amine]
0.0397 µM	0.0243 µM	FC(F)(F)c1cnc(Nc2ccc([C@H]3CNCCO3)cc2Cl)nc1 [Example 169, ((S)-2-Chloro-4-morpholin-2-yl-phenyl)-(5-trifluoromethyl-pyrimidin-2-yl)-amine]
0.033 µM	0.0058 µM	COc1cc(Cl)nc(Nc2ccc([C@@H]3CNCCO3)cc2)n1 [Example 180, (4-Chloro-6-methoxy-pyrimidin-2-yl)-((R)-4-morpholin-2-yl-phenyl)-amine]
0.0315 µM	0.0031 µM	Fc1cc(Nc2ncc(C(F)(F)F)cn2)ccc1[C@H]1CNCCO1 [Example 197, (S)—N-(3-Fluoro-4-(morpholin-2-yl)phenyl)-5-(trifluoromethyl)pyrimidin-2-amine]
0.0298 µM	0.0043 µM	Cc1cc(C(F)(F)F)nc(Nc2ccc([C@@H]3CNCCO3)cc2)n1 [Example 178, (4-Methyl-6-trifluoromethyl-pyrimidin-2-yl)-((R)-4-morpholin-2-yl-phenyl)-amine]
0.0065 µM	0.0077 µM	FC(F)(F)c1cnc(Nc2ccc([C@@H]3CNCCO3)cc2Cl)nc1 [Example 168, ((R)-2-Chloro-4-morpholin-2-yl-phenyl)-(5-trifluoromethyl-pyrimidin-2-yl)-amine]
0.0065 µM	0.0032 µM	Clc1cnc(Nc2ccc([C@@H]3CNCCO3)c(Cl)c2)nc1 [Example 202, ((R)-3-Chloro-4-morpholin-2-yl-phenyl)-(5-chloro-pyrimidin-2-yl)-amine]
0.0017 µM	0.0022 µM	FC(F)(F)COc1cnc(Nc2ccc([C@@H]3CNCCO3)c(Cl)c2)nc1 [Example 203, ((R)-3-Chloro-4-morpholin-2-yl-phenyl)-[5-(2,2,2-trifluoro-ethoxy)-pyrimidin-2-yl]-amine]
